Reference: US6673555B1, “Methods of using SCAP antagonists” (SmithKline Beecham Corporation, priority 1999, dated 2004)
Blank lines part the entries; values can stand above or below the molecule they belong to.

How the values were obtained:
[1] = system: human LDL-receptor promoter; assay: LDL-receptor promoter luciferase reporter assay in transfected HepG2 cells; assay type: cell-based
Source text: The human LDL-receptor promoter named p-588 corresponding to nucleotide −588 to +91 relative to the major transcription site was cloned by PCR from human genomic DNA (Clonetech) using SEQ ID NO: 3 […] and SEQ ID NO: 4 […] primers. and inserted into pGL3-basic vector (Promega) at Hind-III and Nco-I sites. The sequencing was identical to published promoter (Genbank L29401). Shorter promoters were obtained by PCR sub-cloning using Kpn-I and Nar-I sites. The primer SEQ ID NO: 5 […] corresponding to luciferase coding sequence was used as reverse primer for all constructs. The following primers were used to produce respectively p-149, p-118, p-70, p-53 and p-31 promoters: SEQ ID NO: 6 […], SEQ ID NO: 7 […], SEQ ID NO: 8 […], SEQ ID NO: 9 […] and SEQ ID NO: 10 […]. A vector containing the 38 bp of the minimal promoter of adenovirus Major Late Promoter (Ham. J. et al., EMBO, 10: 2931-2940 (1991)) was produced using Bgl-II and Hind-III site in pGL3-basic. Four repeats of the SRE sequence present on the human LDL-receptor promoter were introduced in p-MLP vector using Bgl-II site, SEQ ID NO: 11 […] and complementary oligo. HepG2 cells seeded the previous day at 3 10^5 cells per well of 24 well plate were transfected with 1 μg of LDL-promoter containing vector together with p-RL-TK control vector (Promega) using Fugene 6 (Boehringer). HepG2 cells were incubated for 28 hours in the presence of SCAP antagonist and/or 25OH-cholesterol. Firefly luciferase and Renila activity were measured using Dual Luciferase Assay Kit (Promega) and Lumistar (BMG). The ratio of Firefly luciferase to Renila were used to calculate mean and S.D. of tetraplicates.
A vector containing the human LDL-receptor promoter coupled to Firefly luciferase reporter was made. A mixture of the LDL-receptor vector and control pRL-TK vector was used to transfect HepG2 cells. Cells were incubated with 25OH-cholesterol (0.2 or 1 μM) alone or in the presence (black bars) or absence (gray bars) of Example 1 (1 μM) for 28 hours before measurement of luciferase and renila activity. The ratio of luciferase activity versus renila activity was calculated and the mean and SD of triplicates were expressed as percent of control.
Shortening the LDL-receptor promoter in the same reporter vector modifies the relative luciferase activity (FIG. 3A).

HepG2 cells = assay: Uptake of Dil-LDL by HepG2 cells; assay type: cell-based; conditions: 10 μM, 24 hours, Dil-LDL 6 μg/ml for last 4 hours, FIG. 5
Procedure: To determine if activation of LDL-receptor promoter also translated into an increase in functional LDL receptors, an LDL uptake assay was set up. HepG2 cells seeded at 8 10^4 cells per 8 well Biocoat slides (Beckton Dickinson) were treated with SCAP antagonist or 25OH-cholesterol for 20h and then incubated with 6 μg/ml of fluorescent Dil-LDL for 4 hours. The amount of fluorescent dye that accumulated in the lysosomes was quantified by fluorescence microscopy using Axioplan-2 Zeiss microscope equipped with DXC950P video camera (Sony) and red fluorescence filters.
HepG2 cells were treated for 24 hours in the presence of 0.5 μM Example 1 or 10 μM 25OH-cholesterol. Dil-LDL (6 μg/ml) were added 4 hours before the end of the incubation. Cells were washed and observed by fluorescence microscopy using rhodamine filters and video camera with fixed settings.

full length hamster SCAP = target: T1, full length hamster SCAP (Cricetulus griseus, UniProt P97260); assay: Photo-affinity labelling / competition binding on full length SCAP in infected Sf-9 cells
T1 construct: recombinant baculovirus encoding for full length hamster SCAP containing a T7 tag; expressed in transfected cells; host or cells: Sf-9 insect cells infected with recombinant baculovirus (pTen12 transfer vector)
T1 sequence (P97260 1-1276): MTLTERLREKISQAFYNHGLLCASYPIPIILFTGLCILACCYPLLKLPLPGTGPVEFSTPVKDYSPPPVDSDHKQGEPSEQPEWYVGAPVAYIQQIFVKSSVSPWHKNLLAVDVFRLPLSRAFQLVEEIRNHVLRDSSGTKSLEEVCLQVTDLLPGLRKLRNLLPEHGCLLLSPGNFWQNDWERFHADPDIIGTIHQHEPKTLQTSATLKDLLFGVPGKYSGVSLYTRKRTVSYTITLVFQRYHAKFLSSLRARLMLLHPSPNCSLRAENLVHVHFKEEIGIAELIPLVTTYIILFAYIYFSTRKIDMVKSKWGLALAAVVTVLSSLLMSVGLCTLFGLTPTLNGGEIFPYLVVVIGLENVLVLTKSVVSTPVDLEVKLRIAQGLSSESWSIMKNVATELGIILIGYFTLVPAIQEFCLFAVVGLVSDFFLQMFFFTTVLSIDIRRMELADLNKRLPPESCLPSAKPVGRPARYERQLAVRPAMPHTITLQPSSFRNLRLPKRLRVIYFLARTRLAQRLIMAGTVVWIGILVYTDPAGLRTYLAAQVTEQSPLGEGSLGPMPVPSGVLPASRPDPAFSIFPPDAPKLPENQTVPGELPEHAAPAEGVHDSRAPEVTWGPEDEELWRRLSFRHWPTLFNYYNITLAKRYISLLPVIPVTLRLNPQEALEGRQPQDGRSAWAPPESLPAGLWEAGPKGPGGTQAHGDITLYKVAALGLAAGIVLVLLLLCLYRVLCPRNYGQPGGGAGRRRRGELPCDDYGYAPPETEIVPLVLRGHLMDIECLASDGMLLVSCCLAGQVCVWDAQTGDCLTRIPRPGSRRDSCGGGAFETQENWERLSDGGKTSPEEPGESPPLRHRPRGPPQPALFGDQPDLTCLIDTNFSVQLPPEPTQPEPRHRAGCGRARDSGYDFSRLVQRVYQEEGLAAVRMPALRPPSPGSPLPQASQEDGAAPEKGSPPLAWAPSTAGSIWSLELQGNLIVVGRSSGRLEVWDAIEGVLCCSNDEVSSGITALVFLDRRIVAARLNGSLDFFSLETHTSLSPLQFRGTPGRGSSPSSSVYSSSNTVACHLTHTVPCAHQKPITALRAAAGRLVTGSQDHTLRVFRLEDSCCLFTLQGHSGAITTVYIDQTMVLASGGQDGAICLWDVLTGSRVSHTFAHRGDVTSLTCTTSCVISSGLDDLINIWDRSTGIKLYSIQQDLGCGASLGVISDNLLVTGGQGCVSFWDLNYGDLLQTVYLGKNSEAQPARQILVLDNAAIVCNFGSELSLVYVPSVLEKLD
Procedure: Hamster SCAP cDNA was cut from pTK-HSV-SCAP-T7 using BgIII and Xbal and re-cloned in pTen 12 transfer vector. Recombinant baculovirus clones were produced by Quantum Biotechnologies Inc. and screened by western blots using T7-tag antibodies on Sf-9 infected cells. Sf-9 cells were grown in CCM-3 medium at 28° C. and seeded at 8×10^6 cells per 75 cm^2 flask. Four hours later they were infected with 200×10^6 pfu of baculovirus and incubated 3 days before harvest. […]
(§1) Infected Sf-9 cells were harvested, washed in Dulbecco phosphate buffered saline and 2×10^5 cells were incubated with test compounds and the control (^14C radio-labeled Example 2 ) for 30 min at 28° C. in 24 well plates. […] The radioactivity was detected using a Phosporlmager screen (Molecular Dynamics).
Sf-9 insect cells were infected with recombinant baculovirus encoding for full length hamster SCAP containing a T7 tag (FIG. 1A). Total protein (10 μg) from control cells (lanes b, d) or infected cells (lanes a, c) were analyzed by SDS-PAGE and either stained using Coomassie blue (lanes a, b) or blotted on nitrocellulose membrane following immuno-detection with T7 tag monoclonal antibody (lanes c, d). […] The gel was dried and radioactivity detected using Phosphor Imager Screen.

[2] = target: T2, truncated form of SCAP corresponding to amino acid 2 to 473 (Cricetulus griseus, UniProt P97260); assay: Photo-affinity labelling / competition binding on truncated SCAP (amino acid 2 to 473) in Sf-9 cell membranes; parameters: species or system hamster
T2 construct: a truncated form of SCAP corresponding to amino acid 2 to 473; expressed in transfected cells; host or cells: Sf-9 insect cells infected with recombinant baculovirus (Gateway pDest10 bacmid); membranes analysed
T2 sequence (P97260 2-473): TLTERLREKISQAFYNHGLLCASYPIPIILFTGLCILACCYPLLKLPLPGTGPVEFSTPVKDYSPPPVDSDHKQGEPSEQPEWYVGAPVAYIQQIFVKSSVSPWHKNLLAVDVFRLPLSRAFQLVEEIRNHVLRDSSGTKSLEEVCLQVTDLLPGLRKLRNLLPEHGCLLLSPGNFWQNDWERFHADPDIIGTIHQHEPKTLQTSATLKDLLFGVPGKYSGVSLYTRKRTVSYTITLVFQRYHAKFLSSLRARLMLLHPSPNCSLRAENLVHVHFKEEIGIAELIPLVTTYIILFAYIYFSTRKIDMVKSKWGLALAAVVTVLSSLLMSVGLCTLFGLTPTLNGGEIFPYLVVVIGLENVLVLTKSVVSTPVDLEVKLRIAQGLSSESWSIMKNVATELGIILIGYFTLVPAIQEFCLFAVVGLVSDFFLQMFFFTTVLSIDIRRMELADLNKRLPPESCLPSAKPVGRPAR
Procedure: Hamster SCAP cDNA was cut from pTK-HSV-SCAP-T7 using BgIII and Xbal and re-cloned in pTen 12 transfer vector. Recombinant baculovirus clones were produced by Quantum Biotechnologies Inc. and screened by western blots using T7-tag antibodies on Sf-9 infected cells. Sf-9 cells were grown in CCM-3 medium at 28° C. and seeded at 8×10^6 cells per 75 cm^2 flask. Four hours later they were infected with 200×10^6 pfu of baculovirus and incubated 3 days before harvest. Truncated SCAP corresponding to amino acid 2 to 473 was produced by PCR amplification with Platinium Pfx polymerase using pTK-HSV-SCAP-T7 as template and primers containing attB1 sequence followed by SEQ ID NO: 1 […] and the complement strand of attB2 sequence followed by SEQ ID NO: 2 […]. After recombination into pDonR201 vector using the Gateway cloning system, the inserts were recloned into pDest10 vector using LR recombinase. The corresponding bacmids and recombinant baculovirus were produced according the manufacturer instructions.
A competition binding assay using recombinant SCAP protein was developed in Sf-9 insect cells. […]
as §1, with “Dynamics). […]” for “Dynamics).”

Structure (SMILES): C[C@H](CCCC(C)(C)O)[C@H]1CC[C@H]2[C@@H]3CC=C4C[C@@H](O)CC[C@]4(C)[C@H]3CC[C@]12C [25OH-cholesterol, reference compound]
LDL-receptor promoter activity (luciferase/renila ratio) ([1]; 0.2 or 1 μM, 28 hours, HepG2, FIG. 2): represses LDL-receptor promoter activity
repression of shortened LDL-receptor promoter constructs ([1]; HepG2, FIG. 3B right): two sequences are involved: SRE and FP-1
LDL uptake (Dil-LDL fluorescence) (HepG2 cells): reduced it

photo-affinity labelling of SCAP by the radio-labelled compound (full length hamster SCAP; 5 μM 14C-Example 2, 30 min at 28° C., 365 nm UV 10 min, FIG. 1A): specifically labeled SCAP
photo-affinity labelling of truncated SCAP by the radio-labelled compound ([2]; 5 μM 14C-Example 2, membranes, FIG. 1B): can be labelled
Structure (SMILES): COc1cc(C(C)C)ccc1C1CCN(CCCCNC(=O)c2ccc(C(=O)c3ccccc3)cc2)CC1.Cl [Example 2, 4-(4-Benzoyl)-N-{4-[4-(4-isopropyl-2-methoxy-phenyl)-piperidin-1-yl]-butyl}-benzamide Hydrochloride]

Structure (SMILES): CCOC1=CC2=C(CN(C)C)C[C@@H]3[C@H](C(O)C[C@@]4(C)[C@H]3CC[C@@]43OCOC34COCO4)[C@@]2(C)CC1 (stereo partly drawn) [Example 3, 3-Ethoxy-11-hydroxy-androst-3,5-diene-17α,17β-(1,3,6,8-tetraoxaspiro[4.4]nonan-4-yl)-6-methyldimethylamine]
displacement of the 14C-Example 2 labelling of SCAP (full length hamster SCAP; 100, 50, 20 μM test compound versus 5 μM 14C-Example 2, FIG. 1A): displaced in a dose dependant manner
competition with 14C-Example 2 labelling of truncated SCAP ([2]; 200 μM or 100 μM test compound versus 5 μM 14C-Example 2, FIG. 1B): competitive
